Assays:
[1] = biological target: Nucleic Acid; experiment: Binding affinity to HIV-1 TAR RNA by FRET assay; assay type: nucleic-acid assay, Human immunodeficiency virus 1
[2] = Binding affinity to HIV-1 RRE RNA by fluorescence anisotropy; design: species or system Human immunodeficiency virus 1

| SMILES | Kd [1] | Kd [2] |
| --- | --- | --- |
| Nc1nc2c(ncn2CC(=O)NCCCC[C@H](N)C(=O)NC[C@H]2O[C@H](O[C@H]3[C@H](O)[C@@H](O)[C@H](N)C[C@@H]3N)[C@H](N)[C@@H](O)[C@@H]2O)c(=O)[nH]1 | 240 nM | 530 nM |
| NC[C@H]1O[C@H](O[C@H]2[C@H](O)[C@@H](O)[C@H](N)C[C@@H]2N)[C@H](N)[C@@H](O)[C@@H]1O [NEAMINE] | – | 5400 nM |
| Nc1ccn(CC(=O)NCCCC[C@H](N)C(=O)NC[C@H]2O[C@H](O[C@H]3[C@H](O)[C@@H](O)[C@H](N)C[C@@H]3N)[C@H](N)[C@@H](O)[C@@H]2O)c(=O)n1 | 1400 nM | 640 nM |

More lines, in order of falling Kd [2], values ahead:

| Kd [1] | Kd [2] | SMILES |
| --- | --- | --- |
| – | 5700 nM | NCCCC[C@H](N)C(=O)NC[C@H]1O[C@H](O[C@H]2[C@H](O)[C@@H](O)[C@H](N)C[C@@H]2N)[C@H](N)[C@@H](O)[C@@H]1O |
| 740 nM | 570 nM | Nc1ncnc2c1ncn2CC(=O)NCCCC[C@H](N)C(=O)NC[C@H]1O[C@H](O[C@H]2[C@H](O)[C@@H](O)[C@H](N)C[C@@H]2N)[C@H](N)[C@@H](O)[C@@H]1O |
| 860 nM | 570 nM | Cc1cn(CC(=O)NCCCC[C@H](N)C(=O)NC[C@H]2O[C@H](O[C@H]3[C@H](O)[C@@H](O)[C@H](N)C[C@@H]3N)[C@H](N)[C@@H](O)[C@@H]2O)c(=O)[nH]c1=O |
